The results in this text go back to patent US11180495B2 (Abbisko Therapeutics Co., Ltd., priority 2017, dated 2021).

One test addresses T1, CSF-1R (Homo sapiens, UniProt P07333).
T1 construct: 3.95 nM of CSF-1R, 500 μM of ATP and 0.2 mg/mL of polypeptide
The test can be described thus: CSF-1R in vitro biochemical kinase study (ADP-Glo assay). The following applies: 3.95 nM CSF-1R, 500 μM ATP, 30° C. 60 min, read-out: Enzymatic experiment CSF-1R IC50. As for the experimental part: In the present invention, the inhibitory activity of compounds against the CSF-1R activity was determined by using CSF-1R ADP-Glo assay. The compound-mediated inhibition effect was achieved by inhibiting the production of ADP from consumption of ATP, and the activities of compounds were evaluated by using the ADP-Glo kit (Promega, cat. No. V9101). The specific experimental process was as follows: • 1. The kinase reaction performed in the present invention was carried out in a 384-well plate (Perkinelmer, cat. No. 6007290), and 3.95 nM of CSF-1R, 500 μM of ATP and 0.2 mg/mL of polypeptide (Poly (Glu4, Try1), Sigma, cat. No. P0275) were respectively weighed and added to each well: • 2. following reagents were then added to each well to reach the final reaction system: 40 mM Tris, pH 7.5, 20 mM MgCl2, 0.01% Triton X-100, 0.1 mg/mL BSA, 2.5 mM DTT and 0.1% DMSO; • 3. the reaction was conducted at 30° C. for 60 min; • 4. then an equal volume of stop solution (ADP-Glo) was added to the kinase reaction system; • 5. the mixed solution was incubated at 25° C. for 60 min, and the kinase reaction was then terminated; • 6. a two-fold volume of detection reagent was then added to each well; • 7. the mixed solution was incubated at 25° C. for 30 min; • 8. the compound IC50 value was measured by using a plate reader (Tecan, M1000) and a four-parameter curve was generated in Graphpad Prism. B. KIT/PDGFRA In Vitro Biochemical Kinase Study • 1. Preparation of 1-fold kinase buffer and stop solution • 1.1 1-fold kinase buffer: 50 mM HEPES, pH 7.5, 0.0015% Brij-35. • 1.2 stop solution: 100 mM HEPES, pH 7.5, 0.015% Brij-35, 0.2% Coating Reagent #3 50 mM EDTA • 2. Preparation of compound solution • 2.1 Dilution of compound solution • 1) The final concentration of the compound solution was 40 μM. and the concentration of the prepared stock solution was 50 times of the final concentration, i.e., 2 mM. • 2) 80 μL of 100% DMSO was added to the second well of the 96-well plate, then 20 μL of 10 mM compound solution was added, and thereby 2 mM compound solution was prepared, 60 μL of 100% DMSO was added to other wells, 20 μL of compound was taken from the second well, added to the third well and diluted by 4 times. This serial 4-time dilution was conducted in sequence for the total of 10 concentrations. • 2.2 5-fold compound solution transferred to a reaction plate • 1) 10 μL of solution was taken from each well of the above 96-well plate and added to another 96-well plate, and 90 μL of kinase buffer was added. • 2) 5 μL of solution was taken from the above 96-well plate and added to a 384-well reaction plate. • 2.3 Kinase reaction • 1) KIT/PDGFRA kinase was added to the 1-fold kinase buffer solution to obtain a 2.5-fold kinase solution. • 2) FAM-labeled polypeptide and ATP were added to the 1-fold kinase buffer solution to obtain a 2.5-fold substrate solution. • 3) 10 μL of 2.5-fold kinase solution was added to the 384-well reaction plate, which already contained 5 μL of 5-fold compound in 10% DMSO. And the mixed solution was incubated at room temperature for 10 min. • 4) 10 μL of 2.5-fold substrate solution was added to the 384-well reaction plate. • 5) Kinase reaction and termination: the mixed solution was incubated at 28° C. for a certain period of time, and 25 μL of stop solution was added to stop the reaction. • 2.4 Data reading of Caliper EZ Reader II • 2.5 Calculation of percent inhibition and IC50 • 1) Percent conversion data were copied from the Caliper EZ Reader. • 2) Percent conversion was converted into percent inhibition data, wherein, max referred to percent conversion of the DMSO control, and min referred to percent conversion of the negative control without kinase activity. Percent inhibition=(max−conversion)/(max−min)*100. • 3) The IC50 value was fitted with XLFit excel add-in version 5.4.0.8: Fitting formula: Y=Bottom+(Top−Bottom)/(1+(IC50/X)^HillSlope).
In general terms: ADP-Glo turns the ADP formed in a reaction into a luminescent signal.

The test system of test [1] is M-NFS-60 mouse myeloid leukemia lymphocytes. The test is described as follows: CSF-1R-related cell proliferation experiment (Cell Titer Glo). The following applies: 72 h, M-NFS-60 cells, 3 days, CTG. The class given is cell-based. Here is the method:
Functional effects of compounds on cell proliferation were evaluated by using Cell Titer Glo (CTG) study in the present invention. M-NFS-60 mouse myeloid leukemia lymphocytes (cat. No. CCBJ078) from National Institutes For Food and Drug Control were cultured in the incubator under conditions of RPMI 1640 (Gibco, cat. No. 11875-119), 10% fetal bovine serum (Gibco, 10099-141), human 10 ng/mL M-CSF macrophage colony-stimulating factor (R&D, cat. No. MVN0915101), 37° C. and 5% CO2. Since ATP is an index for viable cell metabolism, CTG (Promega, #G7573) reagent is a homogeneous detection method for detecting the number of viable cells in the culture by quantifying ATP. Therefore, compound-mediated inhibition for cell proliferation/survival was evaluated by quantifying ATP in cells, and the specific experimental process was as follows: • 1. The cells were plated into a tissue-culture-medium-treated 96-well plate (Costar #3904) with 5,000 cells/well/80 μL fresh culture medium: • 2. 24 hours later, 10 μL culture medium containing testing compound with 10-fold of final concentration was added to each well; • 3. 10 μL of culture medium containing M-CSF with 10-fold of the final concentration was then added to each well: • 4. dosage effect was evaluated by testing the 3-fold serial dilutions of the compound; • 5. after the cells were incubated for 3 days at 37° C. and 5% CO2, the inhibition on cell survival was quantified after 50 μL of CTG was added and the luminescence assay was performed; • 6. the compound concentration leading to half maximal inhibitory (IC50) and the compound concentration leading to absolute half maximal inhibitory (Absolute IC50) were measured by a plate reader (M1000, Tecan) and a four-parameter curve fit in Graphpad Prism 7. D. CSF-1R-Related Cell Proliferation Experiment
A general note: ATP-based viability assays read luminescence as a measure of living cells.

Setting [2] is: absolute half maximal inhibitory concentration, read-out: Cytological experiment CSF-1R Absolute IC50.
Setting [3] is: read-out: Cytological experiment CSF1R IC50.

Read-outs that look alike come from different tables or passages of the source.

T1 sequence (P07333 20-972): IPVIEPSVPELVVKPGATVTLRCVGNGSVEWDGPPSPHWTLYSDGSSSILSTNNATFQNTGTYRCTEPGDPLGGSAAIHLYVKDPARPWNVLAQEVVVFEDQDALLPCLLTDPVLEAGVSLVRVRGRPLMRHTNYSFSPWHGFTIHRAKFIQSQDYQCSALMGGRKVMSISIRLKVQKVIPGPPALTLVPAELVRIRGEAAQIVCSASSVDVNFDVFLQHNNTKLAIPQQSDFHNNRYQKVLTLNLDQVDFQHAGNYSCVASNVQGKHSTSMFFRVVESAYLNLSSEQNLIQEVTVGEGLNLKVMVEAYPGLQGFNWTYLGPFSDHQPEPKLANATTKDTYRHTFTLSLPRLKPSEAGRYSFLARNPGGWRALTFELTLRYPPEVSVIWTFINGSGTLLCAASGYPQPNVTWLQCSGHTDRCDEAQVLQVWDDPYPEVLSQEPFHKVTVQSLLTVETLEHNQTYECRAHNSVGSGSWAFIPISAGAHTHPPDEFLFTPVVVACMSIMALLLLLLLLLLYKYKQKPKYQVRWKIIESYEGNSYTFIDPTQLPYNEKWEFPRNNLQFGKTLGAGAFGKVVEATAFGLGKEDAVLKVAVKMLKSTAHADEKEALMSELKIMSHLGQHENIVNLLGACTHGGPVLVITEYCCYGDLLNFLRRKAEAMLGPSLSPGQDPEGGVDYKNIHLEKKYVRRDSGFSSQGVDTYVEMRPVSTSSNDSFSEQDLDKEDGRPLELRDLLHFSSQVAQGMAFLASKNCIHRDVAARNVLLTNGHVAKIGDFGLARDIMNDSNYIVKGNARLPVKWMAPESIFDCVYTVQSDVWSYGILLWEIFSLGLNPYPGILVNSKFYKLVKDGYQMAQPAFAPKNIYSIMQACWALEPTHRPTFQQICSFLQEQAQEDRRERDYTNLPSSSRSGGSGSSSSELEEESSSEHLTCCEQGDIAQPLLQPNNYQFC

The IC50 is the concentration that inhibits the measured activity by half. `Cc1nc(-c2cnc(NC(C)C)[nH]c2=O)ccc1C(=O)c1c[nH]c2ncccc12` [Example 6, 2-(isopropylamino)-5-(6-methyl-5-(1H-pyrrolo[2,3-b]pyridine-3-carbonyl)pyridin-2-yl)pyrimidin-4(3H)-one]: the IC50 on CSF-1R is 88.1 nM.
For `CC(C)Nc1ncc(-c2ccc(Cc3c[nH]c4ncccc34)cn2)c(=O)[nH]1` [Example 2, 5-(5-((1H-pyrrolo[2,3-b]pyridin-3-yl)methyl)pyridin-2-yl)-2-(isopropylamino)pyrimidin-4(3H)-one], the IC50 at CSF-1R amounted to 19.3 nM; in test [1] (setting [2]), 39.9 nM; in test [1] (setting [3]), 215 nM.
Taken in the same sequence, the figures for `COCCOc1cnc2[nH]cc(Cc3ccc(-c4cnc(NC(C)C)[nH]c4=O)nc3C)c2c1` [Example 3, 2-(isopropylamino)-5-(5-((5-(2-methoxyethoxy)-1H-pyrrolo[2,3-b]pyridin-3-yl)methyl)-6-methylpyridin-2-yl)pyrimidin-4(3H)-one] were 39.1 nM, 47.4 nM and 50.8 nM.
Taken in the same sequence, the figures for `Cc1nc(-c2cnc(NC(C)C)n(C)c2=O)ccc1C(C)c1c[nH]c2ncc(Cl)cc12` (stereo not shown) [Example 12, 5-(5-(1-(5-chloro-1H-pyrrolo[2,3-b]pyridin-3-yl)ethyl)-6-methylpyridin-2-yl)-2-(isopropylamino)-3-methylpyrimidin-4(3H)-one] were 289 nM, 296 nM and 315 nM.
Take `Cc1nc(-c2cnc(NC(C)C)n(C)c2=O)ccc1C(=O)c1c[nH]c2ncc(Cl)cc12` [Example 11, 5-(5-(5-chloro-1H-pyrrolo[2,3-b]pyridine-3-carbonyl)-6-methylpyridin-2-yl)-2-(isopropylamino)-3-methylpyrimidin-4(3H)-one]: the IC50 at CSF-1R was determined as 73.4 nM.
Consider `Cc1nc(-c2cnc(NC(C)C)[nH]c2=O)ccc1Cc1c[nH]c2ncc(OCCO)cc12` [Example 4, 5-(5-((5-(2-hydroxyethoxy)-1H-pyrrolo[2,3-b]pyridin-3-yl)methyl)-6-methylpyridin-2-yl)-2-(isopropylamino)pyrimidin-4(3H)-one], for which the IC50 turned out to be 36.4 nM at CSF-1R, 210 nM in test [1] (setting [2]) and 235 nM in test [1] (setting [3]).
On to `COC(c1ccc(-c2cnc(NC(C)C)n(C)c2=O)nc1C)c1c[nH]c2ncc(Cl)cc12` (stereo not shown) [Example 8, 5-(5-((5-chloro-1H-pyrrolo[2,3-b]pyridin-3-yl)(methoxy)methyl)-6-methylpyridin-2-yl)-2-(isopropylamino)-3-methylpyrimidin-4(3H)-one], for which the IC50 on CSF-1R was 331 nM.
Still for that read-out and setting: next, `Cc1nc(-c2cnc(NC(C)C)n(C)c2=O)ccc1C(O)c1c[nH]c2ncc(Cl)cc12` (stereo not shown) [Example 9, 5-(5-((5-chloro-1H-pyrrolo[2,3-b]pyridin-3-yl)(hydroxy)methyl)-6-methylpyridin-2-yl)-2-(isopropylamino)-3-methylpyrimidin-4(3H)-one]: 315 nM.
With `Cc1nc(-c2cnc3n(c2=O)CCCN3C)ccc1C(=O)c1c[nH]c2ncccc12` [Example 24, 9-methyl-3-(6-methyl-5-(1H-pyrrolo[2,3-b]pyridine-3-carbonyl)pyridin-2-yl)-6,7,8,9-tetrahydro-4H-pyrimido[1,2-a]pyrimidin-4-one], the IC50 on CSF-1R worked out at 168 nM; in test [1] (setting [2]) it was 703 nM; in test [1] (setting [3]), 534 nM.
For `Cc1nc(-n2ccc3c(ncn3C(C)C)c2=O)ccc1Cc1c[nH]c2ncc(Cl)cc12` [Example 25, 5-(5-((5-chloro-1H-pyrrolo[2,3-b]pyridin-3-yl)methyl)-6-methylpyridin-2-yl)-1-isopropyl-1,5-dihydro-4H-imidazo[4,5-c]pyridin-4-one], the IC50 at CSF-1R was determined as 48.1 nM; in test [1] (setting [2]), 622 nM; in test [1] (setting [3]), 553 nM.
